Reference: US7951548B2, “IL-13 production inhibitor” (Takeda Pharmaceutical Company Limited, priority 2005, dated 2011)

Key:
GPR34 = molecular target: T1, GPR34 (Homo sapiens, UniProt Q9UPC5); experiment: MAPK activation: phosphorylation of ERK1/2 in human GPR34-expressed CHO cells (western blotting); assay type: cell-based; details: human GPR34-expressed CHO cells
T1 construct: expressed in transfected cells
Procedure: The cells were prepared as described below. Human GPR34-expressed CHO cells were scraped off with 0.05% trypsin-EDTA (GIBCO) and suspended in a medium (MEM-α (GIBCO), supplemented with 10% FBS (GIBCO) and penicillin/streptomycin (BIOWHITTAKER)). After centrifugation, the cells precipitated were suspended in the medium in 2×10^5 cells/ml and a 1 mL aliquot was plated on a 35 mm cell culture dish. After incubation overnight in a CO2 incubator, the medium was aspirated and washed in PBS. Then 1 mL of serum-free medium (MEM-α (GIBCO), supplemented with penicillin/streptomycin (BIOWHITTAKER)) and incubation was performed in a CO2 incubator. Pertussis toxin (hereinafter PTX) was added in a final concentration of 0.1 μg/mL 20 hours before the assay.
The cells were activated as follows. The medium was aspirated and washed in PBS. Thereafter, 500 μL of assay buffer (HBSS (GIBCO), 10 mM HEPES (Dojin Chemical Laboratory)) was added to perform preincubation for 15 minutes at 37° C. The lysoPS solution and […] of PECGF ([…] cell growth factor) solution as a positive control were added. After the mixture was incubated at 37° C., the reaction was terminated by quenching. The assay buffer was aspirated and washed in PBS. Then, 1×SDS sample buffer/DTT was added to the cells to recover the cells. After ultrasonication for 15 seconds, heating at 95° C. for 5 minutes was followed by quenching.
Detection by SDS-PAGE and western blotting were performed as follows. After separation using 10% Bis-Tris gel (Invitrogen), the gel was transferred to Immuno-Blot PVDF Membrane (Bio-Rad). The membrane was blocked with Block Ace (Dai-Nippon Pharmaceutical) and incubated at room temperature for an hour with a primary antibody (Phospho-p42/p44 MAP Kinase (Thr202/Thr204) Antibody (CST) or p42/p44 MAP Kinase Antibody (CST)) and further incubated at room temperature for an hour using a secondary antibody (Anti-rabbit IgG (CST)). The membrane after the antibody reaction was visualized by chemiluminescence using ECL PLUS (Amersham Biosciences). […]

[1] = tested on: mouse bone marrow-derived mast cells; experiment: MAPK activation: phosphorylation of ERK1/2 in mouse bone marrow-derived mast cells (BMMC); assay type: cell-based; details: BMMC
Procedure: BMMC was established by collecting bone marrow fluid from the femur of male BALB/c mouse (Japan SLC), rinsing in RPMI1640 (Nikken Bio Medical Laboratory) and then incubating in a medium (RPMI1640, 50% WEHI-3 culture supernatant, 10% FBS (GIBCO), penicillin/streptomycin (BIOWHITTAKER), Non-Essential amino acids (GIBCO)) for 4 weeks. The cells were incubated in a CO2 incubator immediately before assay. Pertussis toxin (hereinafter PTX) was added to the cells in a final concentration of 0.1 μg/mL 4 hours before assay. BMMC was washed in ice-chilled assay buffer (Tyrode Buffer, 0.01% fatty acid free-BSA (SIGMA), 1 mM CaCl2, 1 mM MgCl2), and suspended in 2×10^6 cells/ml. The suspension was dispensed in a 1.5 mL tube followed by preincubation for 15 minutes at 37° C. The lysoPS solution and A23187 solution (Wako Pure Chemicals) as a positive control were added in equimolar amounts. After incubation at 37° C., the reaction was terminated by quenching. The cells were precipitated by centrifugation and the assay buffer was aspirated. After washing in PBS, 1×SDS sample buffer/DTT was added to the cells to lyse the cells. After ultrasonication for 15 seconds, the sample was heated at 95° C. for 5 minutes followed by quenching.
Detection by SDS-PAGE and western blotting were performed as follows. After separation using 10% Bis-Tris gel (Invitrogen), the gel was transferred to Immuno-Blot PVDF Membrane (BIO-RAD). The membrane was blocked with Block Ace (Dai-Nippon Pharmaceutical) and incubated at 4° C. overnight with a primary antibody (Phospho-p42/p44 MAP Kinase (Thr202/Thr204) Antibody (CST) or p42/p44 MAP Kinase Antibody (CST)) and further incubated at room temperature for an hour using a secondary antibody (Anti-rabbit IgG (CST)). The membrane after the antibody reaction was visualized by chemiluminescence using ECL PLUS (Amersham Biosciences). Detection and image analysis were performed using LAS1000 (FUJI FILM).

T1 sequence (Q9UPC5 whole entry): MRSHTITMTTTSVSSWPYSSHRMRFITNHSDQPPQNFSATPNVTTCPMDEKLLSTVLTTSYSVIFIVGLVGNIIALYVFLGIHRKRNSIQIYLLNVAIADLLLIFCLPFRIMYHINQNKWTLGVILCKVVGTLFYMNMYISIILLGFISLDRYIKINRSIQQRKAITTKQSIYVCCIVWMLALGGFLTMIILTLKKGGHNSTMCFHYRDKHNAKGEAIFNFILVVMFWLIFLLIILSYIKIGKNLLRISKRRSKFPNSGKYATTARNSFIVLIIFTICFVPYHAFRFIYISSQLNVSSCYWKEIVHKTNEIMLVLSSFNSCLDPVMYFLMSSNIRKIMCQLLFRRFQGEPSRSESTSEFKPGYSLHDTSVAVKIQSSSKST

Q: Which results are given for lysophosphatidylserine [lysoPS]?
A: phosphorylation of ERK1/2 30 minutes after the stimulation (GPR34): the phosphorylation was noted; time of maximum response of ERK1/2 phosphorylation after the stimulation (GPR34): about 5 minutes; phosphorylation of ERK1/2 30 minutes after the stimulation [1]: the phosphorylation was observed; time of maximum response of ERK1/2 phosphorylation after the stimulation [1]: about 2 minutes
